Converted amounts (≈) assume the structure as drawn. Read-outs that look alike come from different tables or passages of the source.
Columns and labels:
all S. aureus isolates = assay: MIC/MBC by broth microdilution, summary over all isolates; type: cell-based, Staphylococcus aureus; details: for MIC: Staphylococcus aureus, read-out: MICs for all S. aureus isolates
S. aureus 1818 (MSSA) = assay: MIC/MBC by broth microdilution reference method; type: cell-based, Staphylococcus aureus
S. aureus 1817 (MSSA) = assay: MIC/MBC by broth microdilution reference method; type: cell-based, Staphylococcus aureus
S. aureus 1334 (MSSA) = assay: MIC/MBC by broth microdilution reference method; type: cell-based, Staphylococcus aureus
S. aureus 1814 (MRSA) = assay: MIC/MBC by broth microdilution reference method; type: cell-based, Staphylococcus aureus
S. aureus 1333 (MSSA) = assay: MIC/MBC by broth microdilution reference method; type: cell-based, Staphylococcus aureus
S. aureus 1815 (MRSA) = assay: MIC/MBC by broth microdilution reference method; type: cell-based, Staphylococcus aureus
S. aureus 1816 (MSSA) = assay: MIC/MBC by broth microdilution reference method; type: cell-based, Staphylococcus aureus
[1] = tested on: S. aureus ATCC 29213 (MSSA reference strain); assay: MIC/MBC by broth microdilution reference method; type: cell-based, Staphylococcus aureus
macrophages (THP-1) = tested on: macrophages (THP-1)
Protocol: (§1) In both models, the viability was assessed using the MTT assay to determine the potential cytotoxicity of antimicrobials on untreated and infected/treated cells. Briefly, an MTT solution (0.5 mg/mL) was added to the cell medium without FBS. After washing with PBS and a 30 min incubation at 37°C, the formazan crystals formed were dissolved in DMSO. Absorbance values at 540 nm were measured using a BioTek Synergy 2 microplate reader.

osteoblasts (MG-63) = tested on: osteoblasts (MG-63)
Protocol: as §1

[2] = tested on: intra-macrophagic S. aureus; assay: Macrophage infection model (THP-1), intracellular activity; type: cell-based, Staphylococcus aureus; details: THP-1, MRSA 1814, MRSA 1815, MSSA 1333 and MSSA 1334, 2 x MIC, 24 h after treatment, vs untreated cells
Protocol: The macrophage infection model was performed using the THP-1 human monocytic cell line (ATCC, Rockville, USA). In brief, cells were cultured in the Roswell Park Memorial Institute (RPMI) medium supplemented with 10% FBS in T75 flasks at 37°C and 5% CO2, and were maintained through weekly transfers within passages 2 to 20. For the assays, THP-1 cells were seeded in 12-well plates and differentiated into macrophages with phorbol myristate acetate (PMA) for 72 h until they reached approximately 80% confluence. Bacterial suspensions, grown overnight in BHI, were prepared and adjusted to an moi of 10, and then introduced to the macrophages. After a 2 h coincubation to facilitate bacterial adherence, the cells were washed and treated with 100 mg/L gentamicin for 1 h. […] Finally, intracellular bacterial cells were enumerated from cellular lysates (following osmotic shock) by plating them onto BHI agar. Infected but untreated cells were used as a control in all experiments. The number of cfu in treated cells was standardized as a percentage of the controls.
(§2) Figure 2. […] Data represent the mean ± SD of three independent experiments. Intracellular cfu counts were normalized relative to untreated cells (depicted by black histograms), and differences between treated and untreated cells, as well as between the two compounds, were assessed using the Mann–Whitney U-test. ***P < 0.001; ****P < 0.0001.

[3] = tested on: intra-osteoblastic S. aureus; assay: Osteoblast infection model (MG-63), intracellular activity; type: cell-based, Staphylococcus aureus; details: MG-63, all four isolates (2 MSSA and 2 MRSA), 2 x MIC, 3 h after treatment, vs untreated cells
Protocol: The osteoblast infection model was conducted using MG-63 (CRL-1427) osteoblastic cells, following previously published procedures.[19] Briefly, MG-63 cells were cultured at 37°C in a 5% CO2 environment and passaged weekly for up to 20 weeks. The culture medium used was DMEM supplemented with 10% FBS, 25 mM HEPES, 2 mM L-glutamine, with or without antibiotics (100 U/mL penicillin plus 100 mg/L streptomycin). For the assays, MG-63 cells were seeded in 24-well plates until reaching 70%–80% confluence. Bacterial cell suspensions grown overnight in BHI broth were prepared and adjusted to an moi of 50, and then introduced to the osteoblasts. After a 2 h coincubation to facilitate bacterial adhesion, MG-63 cells were rinsed and treated with 100 mg/L gentamicin for 1 h to eliminate extracellular bacterial cells. […] Finally, intracellular bacterial cells were quantified in cellular lysates (following osmotic shock) by plating them onto BHI agar.
as §2, with “1.” for “2.”, “from” for “of”, “U-test. *P < 0.05; **P < 0.01;” for “U-test.”

S. aureus = tested on: S. aureus; parameters: method as in ref 19 (Abad et al.); details: concentrations 10x or 100x respective MICs; ref 19 (Abad et al.); cited from earlier work
[4] = summary over all S. aureus isolates of Table 1, broth microdilution
[5] = strain 1818, MSSA multi-susceptible, broth microdilution
[6] = strain 1817, MSSA erythromycin resistant, broth microdilution
[7] = strain 1334, MSSA multi-susceptible, broth microdilution
[8] = strain 1814, MRSA ciprofloxacin resistant, broth microdilution
[9] = strain 1333, MSSA multi-susceptible, broth microdilution
[10] = strain 1815, MRSA gentamicin and erythromycin resistant, broth microdilution
[11] = strain 1816, MSSA multi-susceptible, broth microdilution
[12] = reference strain ATCC 29213, MSSA, broth microdilution

teicoplanin [TEC]
MICs for all S. aureus isolates (all S. aureus isolates; [4]): 0.25 to 1 mg/L
MBC (S. aureus 1818 (MSSA); [5]): 2 µg/mL
MIC (S. aureus 1818 (MSSA); [5]): 1 µg/mL
MBC (S. aureus 1817 (MSSA); [6]): 1 µg/mL
MIC (S. aureus 1817 (MSSA); [6]): 0.5 µg/mL
MBC (S. aureus 1334 (MSSA); [7]): 0.5 µg/mL
MIC (S. aureus 1334 (MSSA); [7]): 0.25 µg/mL
MBC (S. aureus 1814 (MRSA); [8]): 1 µg/mL
MIC (S. aureus 1814 (MRSA); [8]): 0.5 µg/mL
MBC (S. aureus 1333 (MSSA); [9]): 1 µg/mL
MIC (S. aureus 1333 (MSSA); [9]): 0.5 µg/mL
MBC (S. aureus 1815 (MRSA); [10]): 1 µg/mL
MIC (S. aureus 1815 (MRSA); [10]): 0.5 µg/mL
MBC (S. aureus 1816 (MSSA); [11]): 0.5 µg/mL
MIC (S. aureus 1816 (MSSA); [11]): 0.25 µg/mL
MBC [1, 12]: 1 µg/mL
MIC [1, 12]: 0.5 µg/mL

C[C@H]1COc2c(N3CCN(C)CC3)c(F)cc3c(=O)c(C(=O)O)cn1c23 [LVX, levofloxacin]
direct cytotoxicity on uninfected macrophages (MTT) (macrophages (THP-1)): no significant direct cytotoxicity
direct cytotoxicity on uninfected osteoblasts (MTT) (osteoblasts (MG-63)): did not observe any significant direct cytotoxicity
effect on intracellular inoculum in macrophages [2]: significantly reducing the intracellular inoculum
MIC (all S. aureus isolates; [4]): 0.25 to 4 µg/mL (≈ 0.692 to 11.1 µM)
MBC (S. aureus 1818 (MSSA); Staphylococcus aureus, strain 1818, MSSA multi-susceptible, broth microdilution, read-out: MBC): 0.25 µg/mL (≈ 0.692 µM)
MIC (S. aureus 1818 (MSSA); Staphylococcus aureus, strain 1818, MSSA multi-susceptible, broth microdilution, read-out: MIC): 0.25 µg/mL (≈ 0.692 µM)
MBC (S. aureus 1817 (MSSA); Staphylococcus aureus, strain 1817, MSSA erythromycin resistant, broth microdilution, read-out: MBC): 0.25 µg/mL (≈ 0.692 µM)
MIC (S. aureus 1817 (MSSA); Staphylococcus aureus, strain 1817, MSSA erythromycin resistant, broth microdilution, read-out: MIC): 0.25 µg/mL (≈ 0.692 µM)
MBC (S. aureus 1334 (MSSA); Staphylococcus aureus, strain 1334, MSSA multi-susceptible, broth microdilution, read-out: MBC): 0.5 µg/mL (≈ 1.38 µM)
MIC (S. aureus 1334 (MSSA); Staphylococcus aureus, strain 1334, MSSA multi-susceptible, broth microdilution, read-out: MIC): 0.5 µg/mL (≈ 1.38 µM)
MBC (S. aureus 1814 (MRSA); Staphylococcus aureus, strain 1814, MRSA ciprofloxacin resistant, broth microdilution, read-out: MBC): 4 µg/mL (≈ 11.1 µM)
MIC (S. aureus 1814 (MRSA); Staphylococcus aureus, strain 1814, MRSA ciprofloxacin resistant, broth microdilution, read-out: MIC): 4 µg/mL (≈ 11.1 µM)
effect on intracellular bacterial load in osteoblasts [3]: significantly reduced the bacterial load
MBC (S. aureus 1333 (MSSA); Staphylococcus aureus, strain 1333, MSSA multi-susceptible, broth microdilution, read-out: MBC): 0.5 µg/mL (≈ 1.38 µM)
MIC (S. aureus 1333 (MSSA); Staphylococcus aureus, strain 1333, MSSA multi-susceptible, broth microdilution, read-out: MIC): 0.5 µg/mL (≈ 1.38 µM)
MBC (S. aureus 1815 (MRSA); Staphylococcus aureus, strain 1815, MRSA gentamicin and erythromycin resistant, broth microdilution, read-out: MBC): 0.5 µg/mL (≈ 1.38 µM)
MIC (S. aureus 1815 (MRSA); Staphylococcus aureus, strain 1815, MRSA gentamicin and erythromycin resistant, broth microdilution, read-out: MIC): 0.5 µg/mL (≈ 1.38 µM)
MBC (S. aureus 1816 (MSSA); Staphylococcus aureus, strain 1816, MSSA multi-susceptible, broth microdilution, read-out: MBC): 0.25 µg/mL (≈ 0.692 µM)
MIC (S. aureus 1816 (MSSA); Staphylococcus aureus, strain 1816, MSSA multi-susceptible, broth microdilution, read-out: MIC): 0.25 µg/mL (≈ 0.692 µM)
MBC ([1]; Staphylococcus aureus, reference strain ATCC 29213, MSSA, broth microdilution, read-out: MBC): 0.5 µg/mL (≈ 1.38 µM)
MIC ([1]; Staphylococcus aureus, reference strain ATCC 29213, MSSA, broth microdilution, read-out: MIC): 0.5 µg/mL (≈ 1.38 µM)

CO[C@H]1/C=C/O[C@@]2(C)Oc3c(C)c(O)c4c(c3C2=O)C2=NC3(CCN(CC(C)C)CC3)NC2=C(NC(=O)/C(C)=C\C=C\[C@H](C)[C@H](O)[C@@H](C)[C@@H](O)[C@@H](C)[C@H](OC(C)=O)[C@@H]1C)C4=O [rifabutin]
reduction in intracellular bacteria (S. aureus): around 62.1%

CCCCCCCCCC(=O)N[C@@H](Cc1c[nH]c2ccccc12)C(=O)N[C@H](CC(N)=O)C(=O)N[C@@H](CC(=O)O)C(=O)N[C@@H]1C(=O)NCC(=O)N[C@@H](CCCN)C(=O)N[C@@H](CC(=O)O)C(=O)N[C@H](C)C(=O)N[C@@H](CC(=O)O)C(=O)NCC(=O)N[C@H](CO)C(=O)N[C@@H]([C@H](C)CC(=O)O)C(=O)N[C@@H](CC(=O)c2ccccc2N)C(=O)O[C@@H]1C [DAP, daptomycin]
MIC (all S. aureus isolates): 0.25 µg/mL (≈ 0.154 µM)
MBC (S. aureus 1818 (MSSA); Staphylococcus aureus, MSSA): 0.5 µg/mL (≈ 0.309 µM)
MIC (S. aureus 1818 (MSSA); Staphylococcus aureus, MSSA): 0.25 µg/mL (≈ 0.154 µM)
MBC (S. aureus 1817 (MSSA); Staphylococcus aureus, MSSA): 0.5 µg/mL (≈ 0.309 µM)
MIC (S. aureus 1817 (MSSA); Staphylococcus aureus, MSSA): 0.25 µg/mL (≈ 0.154 µM)
MBC (S. aureus 1334 (MSSA); Staphylococcus aureus, MSSA): 0.5 µg/mL (≈ 0.309 µM)
MIC (S. aureus 1334 (MSSA); Staphylococcus aureus, MSSA): 0.25 µg/mL (≈ 0.154 µM)
MBC (S. aureus 1814 (MRSA); Staphylococcus aureus, MRSA): 0.5 µg/mL (≈ 0.309 µM)
MIC (S. aureus 1814 (MRSA); Staphylococcus aureus, MRSA): 0.25 µg/mL (≈ 0.154 µM)
MBC (S. aureus 1333 (MSSA); Staphylococcus aureus, MSSA): 0.5 µg/mL (≈ 0.309 µM)
MIC (S. aureus 1333 (MSSA); Staphylococcus aureus, MSSA): 0.25 µg/mL (≈ 0.154 µM)
MBC (S. aureus 1815 (MRSA); Staphylococcus aureus, MRSA): 0.5 µg/mL (≈ 0.309 µM)
MIC (S. aureus 1815 (MRSA); Staphylococcus aureus, MRSA): 0.25 µg/mL (≈ 0.154 µM)
MBC (S. aureus 1816 (MSSA); Staphylococcus aureus, MSSA): 0.5 µg/mL (≈ 0.309 µM)
MIC (S. aureus 1816 (MSSA); Staphylococcus aureus, MSSA): 0.25 µg/mL (≈ 0.154 µM)
MBC ([1]; Staphylococcus aureus): 0.5 µg/mL (≈ 0.309 µM)
MIC ([1]; Staphylococcus aureus): 0.25 µg/mL (≈ 0.154 µM)

Source: publication PMC10895697 (JAC-Antimicrobial Resistance, 2024)
